Assay results: US8247211B2, “Glycopeptide antibiotics” (American Cyanamid Company, priority 2001, dated 2012)

How the values were obtained:
Experiment in all cases: In vitro antibacterial evaluation: minimum inhibitory concentration (MIC), broth dilution method
Assay type in all cases: cell-based
Conditions in all cases: 18 hours at 35° C.
Enterococcus sp. = tested on: Enterococcus sp.
How it was run: (§1)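 Inoculum: 5×10^5 CFU/mL. Range: 64-0.06 μg/mL. Medium: Muller-Hinton II […]; NCCLS M7-A2 broth dilution. Endpoint: lowest concentration inhibiting growth. Strains include methicillin-, penicillin- and/or vancomycin-resistant clinical isolates.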

Escherichia coli = tested on: Escherichia coli
How it was run: as §1

Staphylococcus sp. = tested on: Staphylococcus sp.
How it was run: as §1

Streptococcus sp. = tested on: Streptococcus sp.
How it was run: as §1

α-O-[(N-Methyl-2-methylpropylamino)carbonyl]-cyclo[glycyl-β-methylphenylalanyl-O-(4-O-hexopyranosylhexopyranosyl)tyrosyl-3-(2-iminoimidazolidin-4-yl)seryl-3-(3-hexopyranosyl-2-iminoimidazolidin-4-yl)serylseryl] [Example 255]
MIC Enterococcus avium (GC 4558) (Enterococcus sp.; Enterococcus avium (GC 4558)): >0.5 µg/mL
MIC Enterococcus faecalis (ATCC 29212) (Enterococcus sp.; Enterococcus faecalis (ATCC 29212)): >0.5 µg/mL
MIC Enterococcus faecalis (GC 2242) (Enterococcus sp.; Enterococcus faecalis (GC 2242)): >0.5 µg/mL
MIC Enterococcus faecalis (GC 2691) (Enterococcus sp.; Enterococcus faecalis (GC 2691)): >0.5 µg/mL
MIC Enterococcus faecalis (GC 3059) (Enterococcus sp.; Enterococcus faecalis (GC 3059)): >0.5 µg/mL
MIC Enterococcus faecalis (GC 4552) (Enterococcus sp.; Enterococcus faecalis (GC 4552)): >0.5 µg/mL
MIC Enterococcus faecalis (GC 4553) (Enterococcus sp.; Enterococcus faecalis (GC 4553)): >0.5 µg/mL
MIC Enterococcus faecalis (GC 4554) (Enterococcus sp.; Enterococcus faecalis (GC 4554)): >0.5 µg/mL
MIC Enterococcus faecalis (GC 6189) (Enterococcus sp.; Enterococcus faecalis (GC 6189)): >0.5 µg/mL
MIC Enterococcus faecium (GC 2243) (Enterococcus sp.; Enterococcus faecium (GC 2243)): >64 µg/mL
MIC Enterococcus faecium (GC 4556) (Enterococcus sp.; Enterococcus faecium (GC 4556)): >64 µg/mL
MIC Enterococcus faecium (GC 4557) (Enterococcus sp.; Enterococcus faecium (GC 4557)): 16 µg/mL
MIC Enterococcus faecalis (ATCC 29212) (Enterococcus sp.; broth dilution, strain ATCC 29212): >0.5 µg/mL
MIC Enterococcus faecalis (GC 2242) (Enterococcus sp.; broth dilution, strain GC 2242): >0.5 µg/mL
MIC Enterococcus faecium (GC 2243) (Enterococcus sp.; broth dilution, strain GC 2243): >64 µg/mL
MIC Enterococcus faecalis (GC 2691) (Enterococcus sp.; broth dilution, strain GC 2691): >0.5 µg/mL
MIC Enterococcus faecalis (GC 3059) (Enterococcus sp.; broth dilution, strain GC 3059): >0.5 µg/mL
MIC Enterococcus faecalis (GC 4552) (Enterococcus sp.; broth dilution, strain GC 4552): >0.5 µg/mL
MIC Enterococcus faecalis (GC 4553) (Enterococcus sp.; broth dilution, strain GC 4553): >0.5 µg/mL
MIC Enterococcus faecalis (GC 4554) (Enterococcus sp.; broth dilution, strain GC 4554): >0.5 µg/mL
MIC Enterococcus faecium (GC 4556) (Enterococcus sp.; broth dilution, strain GC 4556): >64 µg/mL
MIC Enterococcus faecium (GC 4557) (Enterococcus sp.; broth dilution, strain GC 4557): 16 µg/mL
MIC Enterococcus avium (GC 4558) (Enterococcus sp.; broth dilution, strain GC 4558): >0.5 µg/mL
MIC Enterococcus faecalis (GC 6189) (Enterococcus sp.; broth dilution, strain GC 6189): >0.5 µg/mL
MIC Escherichia coli (ATCC 25922) (Escherichia coli; Escherichia coli (ATCC 25922)): >0.5 µg/mL
MIC Escherichia coli (GC 4559) (Escherichia coli; Escherichia coli (GC 4559)): >0.5 µg/mL
MIC Escherichia coli (GC 4560) (Escherichia coli; Escherichia coli (GC 4560)): 0.5 µg/mL
MIC Coagulase Negative Staphylococcus (GC 4547) (Staphylococcus sp.; Coagulase Negative Staphylococcus (GC 4547)): 32 µg/mL
MIC Coagulase Negative Staphylococcus (GC 4548) (Staphylococcus sp.; Coagulase Negative Staphylococcus (GC 4548)): 64 µg/mL
MIC Coagulase Negative Staphylococcus (GC 4549) (Staphylococcus sp.; Coagulase Negative Staphylococcus (GC 4549)): 32 µg/mL
MIC Coagulase Negative Staphylococcus (GC 4551) (Staphylococcus sp.; Coagulase Negative Staphylococcus (GC 4551)): 64 µg/mL
MIC Coagulase Negative Staphylococcus (GC 6257) (Staphylococcus sp.; Coagulase Negative Staphylococcus (GC 6257)): 32 µg/mL
MIC Staphylococcus aureus (ATCC 29213) (Staphylococcus sp.; Staphylococcus aureus (ATCC 29213)): >0.5 µg/mL
MIC Staphylococcus aureus (GC 1131) (Staphylococcus sp.; Staphylococcus aureus (GC 1131)): >0.5 µg/mL
MIC Staphylococcus aureus (GC 3051) (Staphylococcus sp.; Staphylococcus aureus (GC 3051)): 0.5 µg/mL
MIC Staphylococcus aureus (GC 3053) (Staphylococcus sp.; Staphylococcus aureus (GC 3053)): 0.5 µg/mL
MIC Staphylococcus aureus (GC 4541) (Staphylococcus sp.; Staphylococcus aureus (GC 4541)): 0.5 µg/mL
MIC Staphylococcus aureus (GC 4542) (Staphylococcus sp.; Staphylococcus aureus (GC 4542)): 0.5 µg/mL
MIC Staphylococcus aureus (GC 4544) (Staphylococcus sp.; Staphylococcus aureus (GC 4544)): 0.5 µg/mL
MIC Staphylococcus aureus (GC 4545) (Staphylococcus sp.; Staphylococcus aureus (GC 4545)): 0.5 µg/mL
MIC Staphylococcus aureus-SMITH (GC 4543) (Staphylococcus sp.; Staphylococcus aureus-SMITH (GC 4543)): 0.5 µg/mL
MIC Staphylococcus haemolyticus (GC 4546) (Staphylococcus sp.; Staphylococcus haemolyticus (GC 4546)): 32 µg/mL
MIC Staphylococcus aureus (ATCC 29213) (Staphylococcus sp.; broth dilution, strain ATCC 29213): >0.5 µg/mL
MIC Staphylococcus aureus (GC 1131) (Staphylococcus sp.; broth dilution, strain GC 1131): >0.5 µg/mL
MIC Staphylococcus aureus (GC 3051) (Staphylococcus sp.; broth dilution, strain GC 3051): 0.5 µg/mL
MIC Staphylococcus aureus (GC 3053) (Staphylococcus sp.; broth dilution, strain GC 3053): 0.5 µg/mL
MIC Staphylococcus aureus (GC 4541) (Staphylococcus sp.; broth dilution, strain GC 4541): 0.5 µg/mL
MIC Staphylococcus aureus (GC 4542) (Staphylococcus sp.; broth dilution, strain GC 4542): 0.5 µg/mL
MIC Staphylococcus aureus-SMITH (GC 4543) (Staphylococcus sp.; broth dilution, strain GC 4543): 0.5 µg/mL
MIC Staphylococcus aureus (GC 4544) (Staphylococcus sp.; broth dilution, strain GC 4544): 0.5 µg/mL
MIC Staphylococcus aureus (GC 4545) (Staphylococcus sp.; broth dilution, strain GC 4545): 0.5 µg/mL
MIC Staphylococcus haemolyticus (GC 4546) (Staphylococcus sp.; broth dilution, strain GC 4546): 32 µg/mL
MIC Coagulase Negative Staphylococcus (GC 4547) (Staphylococcus sp.; broth dilution, strain GC 4547): 32 µg/mL
MIC Coagulase Negative Staphylococcus (GC 4548) (Staphylococcus sp.; broth dilution, strain GC 4548): 64 µg/mL
MIC Coagulase Negative Staphylococcus (GC 4549) (Staphylococcus sp.; broth dilution, strain GC 4549): 32 µg/mL
MIC Coagulase Negative Staphylococcus (GC 4551) (Staphylococcus sp.; broth dilution, strain GC 4551): 64 µg/mL
MIC Coagulase Negative Staphylococcus (GC 6257) (Staphylococcus sp.; broth dilution, strain GC 6257): 32 µg/mL
MIC Streptococcus agalactiae (GC 4564) (Streptococcus sp.; Streptococcus agalactiae (GC 4564)): 32 µg/mL
MIC Streptococcus pneumoniae (GC 4565) (Streptococcus sp.; Streptococcus pneumoniae (GC 4565)): 16 µg/mL
MIC Streptococcus pyogenes (GC 4563) (Streptococcus sp.; Streptococcus pyogenes (GC 4563)): 16 µg/mL
MIC Streptococcus pyogenes (GC 4563) (Streptococcus sp.; broth dilution, strain GC 4563): 16 µg/mL
MIC Streptococcus agalactiae (GC 4564) (Streptococcus sp.; broth dilution, strain GC 4564): 32 µg/mL
MIC Streptococcus pneumoniae (GC 4565) (Streptococcus sp.; broth dilution, strain GC 4565): 16 µg/mL
